From US8329222B1, “Magnetic nanomedicine for tumor suppression and therapy” (priority 2011, dated 2012) come the findings set out here.

The test system of test [1] is bladder tumor cells MGH-U1. As to the kind of experiment: Fluorescence microscopy of cell entry after 4 hours. Type of test: cell-based, human. Particulars: reacted 4 hours, fluorescent microscope photos. As for the experimental part: Add 2 mL of a mixture liquid containing 20,000 bladder tumor cells MGH-U1 to a 3.5 cm diameter cultivation plate. Place the cultivation plate in a humidified incubator having 5% CO2 in a temperature of 37° C. to enable adherent growth of the cells. Twenty-four hours later, add to the cultivation plate, 100 μL of RPMI1640 medium containing EPI, EPI/SPAnH/MNPs magnetic nanomedicine, DOX, and DOX/SPAnH/MNPs magnetic nanomedicine to react for 4 hours, then flush it with 1 mL of Hanks' balance slat solution (HBSS).

Test [2] has as its system human bladder tumor cells (MGH-U1). Kind of test: XTT growth suppression test on bladder tumor cells. Particulars: cultivated with MGH-U1 for 27 hours, no magnetic field, read-out: cell growth inhibit efficiency. Type of test: cell-based. On the technique in general: Tetrazolium dyes change colour on reduction, which living cells bring about.
Experimental: Cell Cultivation: Place 150 μL of a mixture liquid containing 10,000 human bladder tumor cells (MGH-U1) into each well of 96-well culture plate. Place the culture plate in a humidified incubator in a temperature of 37° C. and with 5% CO2 to enable adherent growth of the cells.
Agent Addition: 24 hours later, mix separately MNPs (concentration 600 μg/mL) EPI (concentrations 2, 5, 10 μM), and EPI/SPAnH/MNPs magnetic nanomedicine (concentrations 2, 5, 10 μM) with a RPMI1640 medium to form mixed solutions. Add respectively 50 μL of the mixed solutions to well, and then place the culture plate in a humidified incubator having 5% CO2 for 2, 4, 6, 10, and 27 hours.
Cell Counting: Remove RPMI1640 medium in the well and add 120 μL of an XTT reaction liquid (2,3-Bis(2-methoxy-4-nitro-5-sulfophenyl)-2H-tetrazolium-5-carboxanilide inner salt) to the wells. Use an ELISA reader (BIO-TEK, model EL 808) to measure the OD (Optical Density) values of each cell at a wavelength of 490 nm to determine the toxicity of SPAnH/MNPs magnetic nanocomposite and the cell-killing rate of EPI/SPAnH/MNPs magnetic nanomedicines to the bladder tumor cells.
Cell Cultivation: Place 150 μL of a mixture liquid containing 10,000 human bladder tumor cells (MGH-U1) into each well of 96-well culture plate. […]

`COc1cccc2c1C(=O)c1c(O)c3c(c(O)c1C2=O)C[C@@](O)(C(=O)CO)C[C@@H]3O[C@H]1C[C@H](N)[C@H](O)[C@H](C)O1` [DOX, Doxorubicin]: the “entry into bladder tumor cell MGH-U1” value in test [1] is on record as “do enter into the bladder tumor cell MGH-U1”. Besides, the inhibition at 10 µM in test [2] amounted to 66.2%.

For the molecule `COc1cccc2c1C(=O)c1c(O)c3c(c(O)c1C2=O)C[C@@](O)(C(=O)CO)C[C@@H]3O[C@H]1C[C@H](N)[C@@H](O)[C@H](C)O1` [EPI, Epirubicin], in test [1], the “entry into bladder tumor cell MGH-U1” value is listed as “do enter into the bladder tumor cell MGH-U1”. Besides, the inhibition at 10 µM in test [2] stood at 64.3%.
